Reference: patent US20070237818A1, “Controlled-release formulation of HCV protease inhibitor and methods using the same” (priority 2005, published 2007)

What was measured:
[1] = solubility in water / aqueous systems; assay type: physicochemical
[2] = test system: hepatitis-C virus; assay: mean viral load over time in HCV infected patients (FIG. 1); assay type: in vivo; conditions: various doses and regimens
Excerpt: Thus, in one aspect of the invention, the one or more discrete dosages are adjusted in amount to provide a highest dose or doses at a time or times corresponding to the time interval when replication of the hepatitis-C virus is highest.

[3] = test system: melanoma A375 tumors; conditions: melanoma A375 tumors implanted into the left ventricle of the heart; cited from earlier work

Structure (SMILES) | solubility [1] | viral load over time [2] | distant bone metastasis to the femur and tibia [3]
CC(C)(C)NC(=O)N[C@H](C(=O)N1C[C@H]2[C@@H]([C@H]1C(=O)NC(CC1CCC1)C(=O)C(N)=O)C2(C)C)C(C)(C)C (stereo partly drawn) [Formula Ia, (1R,5S)—N-[3-Amino-1-(Cyclobutylmethyl)-2,3-Dioxopropyl]-3-[2(S)-[[[(1,1-Dimethylethyl)Amino]Carbonyl]Amino]-3,3-Dimethyl-1-Oxobutyl]-6,6-Dimethyl-3-Azabicyclo[3.1.0]Hexan-2(S)-Carboxamide] | ~600 µg/mL | decline in viral load is cyclical | –
CN(C)C(=O)[C@H](Cc1ccccc1)NC(=O)[C@H]1O[C@@H]1C(=O)NCCc1ccccn1 [CLIK-148] | – | – | reduced
